The values below come from ChEMBL document CHEMBL4402529, “Immunoproteasome-selective inhibitors: An overview of recent developments as potential drugs for hematologic malignancies and autoimmune diseases” (Eur J Med Chem, 2019).

Test [1] has as its target T1, Proteasome subunit beta type-9 (Homo sapiens, UniProt P28065).
T1 sequence (P28065 whole entry): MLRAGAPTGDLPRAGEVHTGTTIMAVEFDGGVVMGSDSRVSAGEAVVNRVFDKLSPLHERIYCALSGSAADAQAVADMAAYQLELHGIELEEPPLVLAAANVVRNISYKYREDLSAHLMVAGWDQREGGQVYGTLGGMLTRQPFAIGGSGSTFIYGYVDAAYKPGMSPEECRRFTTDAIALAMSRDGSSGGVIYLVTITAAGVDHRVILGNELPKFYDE
Put plainly: Inhibition of 20S proteasome beta 1i (unknown origin) after 1 hr by fluorescence based assay.

In test [2] the target is T2, Proteasome subunit beta type-10 (Homo sapiens, UniProt P40306).
T2 sequence (P40306 whole entry): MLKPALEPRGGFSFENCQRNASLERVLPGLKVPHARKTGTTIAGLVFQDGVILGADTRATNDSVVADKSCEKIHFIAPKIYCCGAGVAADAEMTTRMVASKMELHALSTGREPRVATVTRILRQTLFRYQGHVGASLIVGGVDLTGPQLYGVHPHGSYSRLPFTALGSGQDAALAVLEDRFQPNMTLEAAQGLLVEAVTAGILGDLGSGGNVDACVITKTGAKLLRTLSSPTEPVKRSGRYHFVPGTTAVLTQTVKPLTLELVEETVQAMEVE
Put plainly: Inhibition of 20S proteasome beta 2i (unknown origin) after 1 hr by fluorescence based assay.

For test [3], the target named is T3, Proteasome Macropain subunit MB1 (Homo sapiens, UniProt P28074).
T3 sequence (P28074 whole entry): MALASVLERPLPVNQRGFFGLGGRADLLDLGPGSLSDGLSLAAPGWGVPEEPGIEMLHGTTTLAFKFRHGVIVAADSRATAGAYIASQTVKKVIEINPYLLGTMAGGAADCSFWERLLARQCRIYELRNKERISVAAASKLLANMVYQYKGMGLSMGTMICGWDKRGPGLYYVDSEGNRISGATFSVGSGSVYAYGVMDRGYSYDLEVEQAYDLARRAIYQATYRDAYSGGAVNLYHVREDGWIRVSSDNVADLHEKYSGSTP
The test is described as follows: Inhibition of 20S proteasome beta 5c (unknown origin) after 1 hr by fluorescence based assay.

Test [4] has as its target T4, Proteasome subunit beta type-8 (Homo sapiens, UniProt P28062).
T4 sequence (P28062 whole entry): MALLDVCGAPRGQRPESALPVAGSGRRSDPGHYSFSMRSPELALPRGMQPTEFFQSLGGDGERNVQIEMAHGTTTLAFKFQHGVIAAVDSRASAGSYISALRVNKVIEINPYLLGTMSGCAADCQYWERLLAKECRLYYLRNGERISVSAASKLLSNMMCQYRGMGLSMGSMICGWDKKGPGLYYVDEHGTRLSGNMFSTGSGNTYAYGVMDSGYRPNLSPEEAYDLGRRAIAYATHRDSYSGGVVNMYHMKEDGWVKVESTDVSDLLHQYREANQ
The test is described as follows: Inhibition of 20S proteasome beta 5i (unknown origin) after 1 hr by fluorescence based assay.

Test [5] concerns the target T4, Proteasome subunit beta type-8. The test is described as follows: Inhibition of human 20S proteasome beta 5i.
For test [6], the target named is T3, Proteasome Macropain subunit MB1. The test is described as follows: Inhibition of human 20S proteasome beta 5c.
The species named for test [7] is Homo sapiens. The test is described as follows: Selectivity index, ratio of IC50 for human 20S proteasome beta 5c to IC50 for human 20S proteasome beta 5i.
The species named for test [8] is Homo sapiens. Put plainly: Selectivity index, ratio of IC50 for 20S proteasome beta 5c (unknown origin) to IC50 for 20S proteasome beta 5i (unknown origin).
Test [9] is filed under the species Homo sapiens. Put plainly: Selectivity index, ratio of IC50 for 20S proteasome beta 1c (unknown origin) to IC50 for 20S proteasome beta 1i (unknown origin).
In test [10] the target is T4, Proteasome subunit beta type-8. Put plainly: Inhibition of 20S proteasome beta 5i (unknown origin) after 1 hr by cell based assay.
For test [11], the target named is T3, Proteasome Macropain subunit MB1. Put plainly: Inhibition of 20S proteasome beta 5c (unknown origin) after 1 hr by cell based assay.
For test [12], the species on record is Homo sapiens. Put plainly: Selectivity index, ratio of IC50 for 20S proteasome beta 2c (unknown origin) to IC50 for 20S proteasome beta 2i (unknown origin).
Test [13] deals with T1, Proteasome subunit beta type-9. Put plainly: Inhibition of 20S proteasome beta 1i (unknown origin).
A short description of test [14]: Inhibition of 20S proteasome beta 2c (unknown origin).

Bounds are passed on as bounds.

Consider `CC(C)C[C@H](NC(=O)[C@@H](NC(=O)c1cccc(-c2ccccc2)n1)[C@@H](C)O)B(O)O` [DELANZOMIB], for which the IC50 is 1 to 3 nM in test [1], 10 to 30 nM in test [2], 3 to 20 nM in [3] and 3 to 20 nM in test [4].
`Cc1c(CCC(=O)ON2C(=O)CCC2=O)c(=O)oc2cc3occ(-c4ccccc4)c3cc12`: the IC50 came out at 9 nM in [5] and 220 nM in [6]. The Ratio IC50 in the test listed under Homo sapiens [7] stood at 24.
For the molecule `Cc1ccc(S(=O)(=O)N[C@@H](CC(=O)NC(C)(C)C)C(=O)NCCNC(=O)c2cc(-c3ccccc3F)ccc2F)cc1`, the Ratio IC50 in the test listed under Homo sapiens [8] was 28.
In the case of `COc1ccc(C[C@H](NC(=O)[C@@H](C)NC(=O)[C@H]2CC[C@H](O)CC2)C(=O)N[C@@H](CC2=CCCC2)C(=O)[C@@]2(C)CO2)cc1`, the Ratio IC50 in the test listed under Homo sapiens [9] is greater than 14; in the test listed under Homo sapiens [8], 79.
As to `Cc1c(CCC(=O)O)c(=O)oc2cc3occ(-c4ccccc4)c3cc12`, the IC50 in test [5] stood at 1600 nM; in [6], 172000 nM. Further, the Ratio IC50 in the test listed under Homo sapiens [7] is 108.
Turning to `Cc1c(Cc2nsc(=O)o2)c(=O)oc2cc3occ(-c4ccccc4)c3cc12`, in test [5], the IC50 was 120 nM. Further, the Ratio IC50 in the test listed under Homo sapiens [7] is greater than 80.
As for `Cc1ccc(S(=O)(=O)N[C@@H](CC(=O)NC(C)(C)C)C(=O)N[C@@H](C)CC(=O)NCc2cccc3ccccc23)cc1`, the Ratio IC50 in the test filed under Homo sapiens [8] is 13600. Moreover, the results for the IC50 in test [10] and in test [11] were 5.5 nM and 74900 nM, respectively.
On to `COc1ccc([C@@H](O)[C@H](NC(=O)[C@H](C)NC(=O)CN2CCOCC2)C(=O)N[C@@H](CC2=CCCC2)C(=O)[C@@]2(C)CO2)cc1` [ZETOMIPZOMIB], for which the IC50 worked out at 688 nM in test [3] and 39 nM in [4]. The Ratio IC50 is 0.97 in the test filed under Homo sapiens [9], greater than 80.9 in the test filed under Homo sapiens [12] and 17.6 in the test filed under Homo sapiens [8].
Take `Cc1ccc(S(=O)(=O)N[C@H](CC(=O)N[C@@H](C)C(=O)NCc2cccc3ccccc23)CC(=O)NC(C)(C)C)cc1`: the Ratio IC50 in the test filed under Homo sapiens [8] was found to be 5600. The 50% inhibitory concentration (IC50) in test [10] came to 14 nM; in test [11] it was 78200 nM.
For the molecule `C[C@@H](CC(=O)NCc1cccc2ccccc12)NC(=O)[C@H](CC(=O)NC(C)(C)C)NC(=O)CCc1ccccc1`, the Ratio IC50 in the test listed under Homo sapiens [8] came out at 1330. In addition, the IC50 is 57 nM in test [10] and 76000 nM in test [11].
Take `Cc1c(C2CCCC2)c(=O)oc2cc3occ(-c4ccccc4)c3cc12`: the values for the IC50 in test [5] and in [6] were 13 nM and 1070 nM, respectively. In addition, the Ratio IC50 in the test listed under Homo sapiens [7] came to 83.
Consider `CC(C)C[C@H](NC(=O)CN1CCCCCC1)C(=O)N[C@@H](Cc1ccccc1)C(=O)N[C@@H](Cc1ccccc1)C(=O)[C@@]1(C)CO1`, for which the Ratio IC50 is greater than 602 in the test filed under Homo sapiens [9] and 0.8 in the test listed under Homo sapiens [8]. Moreover, the IC50 in [13] came out at 425 nM; in [14], 81 nM.
In the case of `CC(C)(C)NC(=O)C[C@H](NS(=O)(=O)C1CC1)C(=O)NCCNC(=O)c1cc(-c2ccccc2F)ccc1F`, in the test listed under Homo sapiens [8], the Ratio IC50 was found to be 64.

As usually defined, the IC50 is the midpoint of a concentration-inhibition curve. High values mean a need for much substance, low ones inhibition by little substance.
